From ChEMBL document CHEMBL1201862, “PubChem BioAssay data set” (2004)
Active and inactive are the calls of the source.

Tests used:
Protein RecA = biological target: T1, Protein RecA (Mycobacterium tuberculosis, UniProt P9WHJ3); experiment: Fluorescence Cell-Free Homogeneous Dose Retest to Identify Inhibitors of RecA-Intein Splicing Activity. [Related pubchem assays (depositor defined):AID2097, AID2223, AID489010, AID492950]; format: functional
T1 sequence (P9WHJ3 whole entry): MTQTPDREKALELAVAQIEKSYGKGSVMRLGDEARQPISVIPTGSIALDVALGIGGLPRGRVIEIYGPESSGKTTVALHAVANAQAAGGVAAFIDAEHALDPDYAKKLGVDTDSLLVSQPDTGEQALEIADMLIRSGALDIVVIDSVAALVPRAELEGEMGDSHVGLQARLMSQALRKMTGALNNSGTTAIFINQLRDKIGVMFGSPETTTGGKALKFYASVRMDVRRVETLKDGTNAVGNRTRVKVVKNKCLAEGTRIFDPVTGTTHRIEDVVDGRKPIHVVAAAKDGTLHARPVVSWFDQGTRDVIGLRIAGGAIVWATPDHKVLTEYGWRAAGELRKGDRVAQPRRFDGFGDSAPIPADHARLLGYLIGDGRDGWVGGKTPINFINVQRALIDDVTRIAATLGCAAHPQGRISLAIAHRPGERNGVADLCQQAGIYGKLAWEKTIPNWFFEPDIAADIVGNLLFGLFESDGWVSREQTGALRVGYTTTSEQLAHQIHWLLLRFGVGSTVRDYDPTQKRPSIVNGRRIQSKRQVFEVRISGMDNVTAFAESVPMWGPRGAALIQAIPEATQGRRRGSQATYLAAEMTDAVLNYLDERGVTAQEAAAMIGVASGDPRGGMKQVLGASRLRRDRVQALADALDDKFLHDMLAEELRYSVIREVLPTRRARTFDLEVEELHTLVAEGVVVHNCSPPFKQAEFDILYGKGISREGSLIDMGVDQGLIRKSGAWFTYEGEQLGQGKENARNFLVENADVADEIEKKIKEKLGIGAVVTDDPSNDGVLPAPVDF

[1] = NIH3T3 cell viability loss – ATP luminescence, mouse fibroblasts, counter-screen, dose response (AID 2010); format: functional, cell-based;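 also: cells exposed to compound for about 90 hours before reading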
[2] = Trypanosoma cruzi growth suppression in host cells – NIH3T3 host cells, beta-gal luminescence, confirmation (AID 2044); format: functional, cell-based;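 also: intracellular parasites grown in NIH/3T3 mouse fibroblasts as host cells; luminescent beta-galactosidase reporter signal from transgenic T. cruzi replicating inside host cells; inhibitors lower the luminescence signal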
[3] = biological target: T2, Replicative DNA helicase DnaB (Mycobacterium tuberculosis, UniProt P9WMR3); experiment: DnaB intein splicing inhibitors, dose response, biochemical, cell-free fluorescence (AID 449749); format: functional
T2 sequence (P9WMR3 whole entry): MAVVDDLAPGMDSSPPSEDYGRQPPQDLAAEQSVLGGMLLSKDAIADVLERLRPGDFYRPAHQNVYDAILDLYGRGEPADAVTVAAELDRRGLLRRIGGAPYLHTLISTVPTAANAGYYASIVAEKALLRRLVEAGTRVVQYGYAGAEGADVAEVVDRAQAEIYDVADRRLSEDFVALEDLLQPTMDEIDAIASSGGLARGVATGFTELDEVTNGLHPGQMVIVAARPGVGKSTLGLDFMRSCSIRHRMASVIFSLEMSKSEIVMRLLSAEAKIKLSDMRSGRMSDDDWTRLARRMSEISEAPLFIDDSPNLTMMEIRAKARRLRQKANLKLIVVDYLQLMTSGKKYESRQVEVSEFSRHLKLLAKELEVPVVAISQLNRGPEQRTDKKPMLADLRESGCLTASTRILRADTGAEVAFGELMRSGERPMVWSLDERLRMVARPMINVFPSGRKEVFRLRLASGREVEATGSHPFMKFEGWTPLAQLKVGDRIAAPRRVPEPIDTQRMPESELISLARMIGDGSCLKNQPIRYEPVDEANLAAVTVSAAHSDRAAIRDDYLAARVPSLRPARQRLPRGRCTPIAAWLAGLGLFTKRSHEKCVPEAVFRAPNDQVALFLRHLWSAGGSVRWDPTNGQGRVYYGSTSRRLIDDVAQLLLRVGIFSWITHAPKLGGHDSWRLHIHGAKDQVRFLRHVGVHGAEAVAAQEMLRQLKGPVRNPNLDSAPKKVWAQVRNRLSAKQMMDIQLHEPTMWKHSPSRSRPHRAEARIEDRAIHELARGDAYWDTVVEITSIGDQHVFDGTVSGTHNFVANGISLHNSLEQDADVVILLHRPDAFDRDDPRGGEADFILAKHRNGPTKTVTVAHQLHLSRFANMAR

Cytochrome P450 2C19 = Cytochrome P450 2C19 (Homo sapiens, UniProt P33261); experiment: Cytochrome panel assay with activity outcomes. Panel member name: p450-cyp2c19 Compounds with AC50 equal or less than 10 uM are considered active; format: functional
Cytochrome P450 3A4 = Cytochrome P450 3A4 (Homo sapiens, UniProt P08684);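 also: CYP3A4 tested as one member of a cytochrome P450 panel screen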
Cytochrome P450 1A2 = biological target: T3, Cytochrome P450 1A2 (Homo sapiens, UniProt P05177);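 also: PubChem cytochrome P450 panel assay, CYP1A2 panel member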
T3 sequence (P05177 whole entry): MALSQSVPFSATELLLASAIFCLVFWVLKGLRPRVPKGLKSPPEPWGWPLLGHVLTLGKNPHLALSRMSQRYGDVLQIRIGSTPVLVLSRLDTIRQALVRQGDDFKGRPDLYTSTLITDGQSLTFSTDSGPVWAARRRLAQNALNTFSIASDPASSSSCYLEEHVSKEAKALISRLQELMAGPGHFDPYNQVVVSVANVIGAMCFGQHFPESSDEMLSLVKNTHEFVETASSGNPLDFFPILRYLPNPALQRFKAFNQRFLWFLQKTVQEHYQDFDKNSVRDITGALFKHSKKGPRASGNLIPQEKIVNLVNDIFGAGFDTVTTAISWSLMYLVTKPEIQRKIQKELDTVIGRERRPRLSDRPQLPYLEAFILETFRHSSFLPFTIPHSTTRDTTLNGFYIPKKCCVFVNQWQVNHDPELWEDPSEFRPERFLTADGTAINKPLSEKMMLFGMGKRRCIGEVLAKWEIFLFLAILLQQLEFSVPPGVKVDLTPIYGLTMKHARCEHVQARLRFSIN

Cytochrome P450 2D6 = Cytochrome P450 2D6 (Homo sapiens, UniProt P10635);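 also: CYP2D6 member of a cytochrome P450 panel assay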
[4] = biological target: T4, Corticotropin-releasing factor receptor 2/Corticotropin-releasing factor-binding protein (Homo sapiens, UniProt P24387+Q13324); experiment: activators of CRF receptor 2 with binding protein – uHTS hits, confirmation (AID 602473); format: functional; settings: read-out: EC50_Mean
T4 sequence (Q13324 whole entry): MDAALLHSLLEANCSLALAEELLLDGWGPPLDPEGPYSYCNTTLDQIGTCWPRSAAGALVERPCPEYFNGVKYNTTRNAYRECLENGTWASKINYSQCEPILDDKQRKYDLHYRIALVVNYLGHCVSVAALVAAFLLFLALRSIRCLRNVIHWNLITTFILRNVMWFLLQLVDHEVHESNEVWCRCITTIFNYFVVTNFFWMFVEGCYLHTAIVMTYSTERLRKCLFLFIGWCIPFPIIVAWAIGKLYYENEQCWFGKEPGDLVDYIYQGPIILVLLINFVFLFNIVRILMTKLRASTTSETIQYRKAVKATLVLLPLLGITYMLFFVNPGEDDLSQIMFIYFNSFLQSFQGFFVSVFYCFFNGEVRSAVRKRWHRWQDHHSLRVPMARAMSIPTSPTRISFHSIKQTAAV
T4 sequence (P24387 whole entry): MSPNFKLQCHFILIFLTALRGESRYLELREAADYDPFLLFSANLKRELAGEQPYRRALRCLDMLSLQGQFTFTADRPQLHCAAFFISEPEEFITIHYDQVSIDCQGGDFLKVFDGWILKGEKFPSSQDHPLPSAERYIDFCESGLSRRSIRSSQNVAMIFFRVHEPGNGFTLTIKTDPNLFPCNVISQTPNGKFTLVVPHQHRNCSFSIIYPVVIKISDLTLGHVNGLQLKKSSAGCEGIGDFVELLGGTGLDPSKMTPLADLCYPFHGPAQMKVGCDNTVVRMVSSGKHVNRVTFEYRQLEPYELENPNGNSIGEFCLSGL

Chain of Cytochrome P450 2D6 (P10635 whole entry): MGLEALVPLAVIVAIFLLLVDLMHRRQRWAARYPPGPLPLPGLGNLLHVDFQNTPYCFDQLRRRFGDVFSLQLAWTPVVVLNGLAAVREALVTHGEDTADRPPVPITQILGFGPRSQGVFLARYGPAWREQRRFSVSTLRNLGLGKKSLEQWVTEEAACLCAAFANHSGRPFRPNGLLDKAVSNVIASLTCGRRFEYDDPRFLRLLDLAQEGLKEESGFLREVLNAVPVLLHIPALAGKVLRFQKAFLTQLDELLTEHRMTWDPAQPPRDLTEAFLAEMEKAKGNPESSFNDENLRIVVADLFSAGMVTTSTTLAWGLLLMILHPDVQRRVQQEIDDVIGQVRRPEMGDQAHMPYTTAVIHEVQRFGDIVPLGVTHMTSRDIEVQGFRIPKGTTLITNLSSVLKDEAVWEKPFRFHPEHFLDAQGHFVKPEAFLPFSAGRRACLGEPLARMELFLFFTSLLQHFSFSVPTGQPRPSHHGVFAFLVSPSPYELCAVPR
Chain of Cytochrome P450 3A4 (P08684 whole entry): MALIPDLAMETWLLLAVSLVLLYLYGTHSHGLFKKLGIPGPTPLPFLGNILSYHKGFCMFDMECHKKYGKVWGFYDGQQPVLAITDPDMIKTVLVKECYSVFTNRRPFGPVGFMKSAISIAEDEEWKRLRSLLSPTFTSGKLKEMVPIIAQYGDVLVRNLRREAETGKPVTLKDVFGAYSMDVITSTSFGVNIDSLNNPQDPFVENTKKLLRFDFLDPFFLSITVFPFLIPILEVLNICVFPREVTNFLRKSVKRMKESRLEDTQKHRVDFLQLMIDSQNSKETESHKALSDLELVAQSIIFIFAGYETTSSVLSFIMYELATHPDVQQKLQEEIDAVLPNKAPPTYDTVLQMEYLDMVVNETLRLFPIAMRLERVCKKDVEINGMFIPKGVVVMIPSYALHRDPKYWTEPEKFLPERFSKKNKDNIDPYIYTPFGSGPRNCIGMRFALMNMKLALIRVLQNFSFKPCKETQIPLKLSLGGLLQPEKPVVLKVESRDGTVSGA
Chain of Cytochrome P450 2C19 (P33261 whole entry): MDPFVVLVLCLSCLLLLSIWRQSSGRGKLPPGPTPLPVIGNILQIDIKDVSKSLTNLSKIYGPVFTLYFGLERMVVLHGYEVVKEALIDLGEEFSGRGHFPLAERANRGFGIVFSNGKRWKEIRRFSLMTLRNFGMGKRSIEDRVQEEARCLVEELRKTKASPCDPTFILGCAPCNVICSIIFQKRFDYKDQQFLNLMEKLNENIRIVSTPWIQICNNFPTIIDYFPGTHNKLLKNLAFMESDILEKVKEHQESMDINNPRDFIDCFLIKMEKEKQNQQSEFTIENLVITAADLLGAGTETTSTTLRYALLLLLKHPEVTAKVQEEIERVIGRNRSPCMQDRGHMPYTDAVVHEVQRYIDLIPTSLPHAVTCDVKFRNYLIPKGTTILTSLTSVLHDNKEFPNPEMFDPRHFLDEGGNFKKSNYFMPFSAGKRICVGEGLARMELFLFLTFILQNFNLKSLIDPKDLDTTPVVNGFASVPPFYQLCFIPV

Q: With `Cc1cc(C(=O)CCl)c(C)n1CC1COc2ccccc2O1` (stereo unspecified) as the compound, how does the EC50 (Protein RecA) read?
A: 13.5 µM (active)

Q: What about the EC50 [1] of the same compound?
A: 4.42 µM (active)

Q: And the EC50 [2]?
A: 1.81 µM (active)

Q: And the AC50 [3]?
A: 21.7 µM (active)

Q: With `c1cncc(CNc2ncn[nH]2)c1` as the compound, how does the AC50 (Cytochrome P450 2C19) read?
A: inconclusive

Q: For `CC(C)Cn1c(N)c(S(=O)(=O)c2cccs2)c2nc3ccccc3nc21`, which EC50 (Protein RecA) is on record?
A: 32.9 µM (inconclusive)

Q: What about the AC50 [3] of the same compound?
A: > 380 µM (inactive)

Q: Which AC50 (Cytochrome P450 3A4) does the source give for `O=C(Nc1cccc(F)c1)N1CC[C@@]2(CCCN(C(=O)c3ccco3)C2)C1` here?
A: 10 µM (inconclusive)

Q: What about the AC50 (Cytochrome P450 1A2) of the same compound?
A: 25.1 µM (inconclusive)

Q: With `CN1CCN(c2ncc3nc(CCc4ccccc4)c(=O)n(Cc4cccs4)c3n2)CC1` as the compound, how does the AC50 (Cytochrome P450 3A4) read?
A: 12.6 µM (inconclusive)

Q: What about the AC50 (Cytochrome P450 2C19; read-out: AC50) of the same compound?
A: 39.8 µM (inconclusive)

Q: And the AC50 (Cytochrome P450 2D6)?
A: 20 µM (inconclusive)

Q: For `N#Cc1ccc(CC(=O)c2ccccc2)[nH]c1=O`, which EC50 [4] is on record?
A: 12.2 µM (active)

Q: Which AC50 (Cytochrome P450 1A2) does the source give for `Cc1ccc(C2(c3ccc(C)c(O)c3C)CCN(C)CC2)c(C)c1O` here?
A: 5.01 µM (inconclusive)

Q: Which EC50 (Protein RecA) does the source give for `CCOC(=O)CSCCOc1ccc(C=C2C(=O)NC(=O)NC2=O)cc1OC` here?
A: > 380 µM (inactive)

Q: And the AC50 [3]?
A: 46.6 µM (active)

Q: With `NS(=O)(=O)c1cc2c(cc1Cl)N[C@H](Cc1ccccc1)NS2(=O)=O` as the compound, how does the AC50 (Cytochrome P450 1A2) read?
A: 3.16 µM (inconclusive)

Q: What does the source list for `Cc1ccc(C2CC(c3cccs3)=NN2C(=O)CSC2=NCCS2)cc1` (stereo unspecified)?
A: EC50 (Protein RecA): 6.68 µM (active); AC50 [3]: 6.2 µM (active)

Q: With `O=C(Nc1ccccc1)N1CCCC2(CCN(S(=O)(=O)c3ccccc3)CC2)C1` as the compound, how does the AC50 (Cytochrome P450 3A4) read?
A: 5.01 µM (inconclusive)

Q: And the AC50 (Cytochrome P450 1A2)?
A: 15.8 µM (inconclusive)

Q: What about the AC50 (Cytochrome P450 2D6) of the same compound?
A: 15.8 µM (inconclusive)

Q: Which AC50 (Cytochrome P450 1A2) does the source give for `COC(=O)[C@@]1(Cc2ccccc2)[C@H]2c3cc(C(=O)N4CCCC4)n(Cc4cccc5ccccc45)c3C[C@H]2CN1C(=O)c1ccccc1` here?
A: 15.8 µM (inconclusive)

Q: With `CN1CCC(n2[nH]c(-c3ccccc3)c(Cc3ccccc3)c2=O)CC1` [BENZPIPERYLON] as the compound, how does the AC50 (Cytochrome P450 1A2) read?
A: 1.58 µM (inconclusive)

Q: What about the AC50 (Cytochrome P450 2D6) of the same compound?
A: 3.16 µM (inconclusive)

Q: With `CC(C)[C@@H]1[C@H]2CC[C@H](C2)[C@H]1N` as the compound, how does the AC50 (Cytochrome P450 3A4) read?
A: 15.8 µM (inconclusive)

Q: And the AC50 (Cytochrome P450 1A2)?
A: 31.6 µM (inconclusive)

Q: With `CN1CCN(c2ncc3nc(-c4cccs4)c(=O)n(CCC#N)c3n2)CC1` as the compound, how does the AC50 (Cytochrome P450 3A4) read?
A: 31.6 µM (inconclusive)

Q: What about the AC50 (Cytochrome P450 1A2) of the same compound?
A: 15.8 µM (inconclusive)

Q: For `CCOC(=O)N1C(=O)[C@](c2ccc(Cl)cc2)(C(C)C)N1C(=O)OCC`, which EC50 (Protein RecA) is on record?
A: 3.34 µM (active)

Q: What about the AC50 [3] of the same compound?
A: 3.09 µM (active)

Q: With `Cc1ccc2nc(Nc3ccccc3O)nc(-c3ccccc3)c2c1` as the compound, how does the AC50 (Cytochrome P450 3A4) read?
A: 35.5 µM (inconclusive)

Q: What about the AC50 (Cytochrome P450 2C19; read-out: AC50) of the same compound?
A: 2.24 µM (inconclusive)

Q: And the AC50 (Cytochrome P450 2D6)?
A: 3.55 µM (inconclusive)

Q: Which results are given for `COC(=O)c1ccccc1Oc1c(F)c(F)nc(N2CCOCC2)c1F`?
A: AC50 (Cytochrome P450 1A2): 28.2 µM (inconclusive); AC50 (Cytochrome P450 2D6): 35.5 µM (inconclusive)
